SMILES strings stand for the structures. Like-named read-outs stand apart in the source and are kept apart here. Starred links: 1 amine or outer side, 2 acyl side, 3 side chain; linkers in the order of their positions; H or OH if unused. Non-standard residues stand in square brackets, D forms with d. Residues, ends and D or L forms follow the SMILES beside them. Groups on a side chain read outwards from the residue. *: point of attachment. C20 diacid = O=C(O)CCCCCCCCCCCCCCCCCCC(=O)*; γGlu = O=C(O)[C@H](CCC(=O)[*:2])N[*:1]; Nle = CCCC[C@H](N)C(=O)O; AEEA = NCCOCCOCC(=O)O

This note sets out measurements from EP4810052A2, “HCRHR2 SELECTIVE POLYPEPTIDES” (Gubra A/S, priority 2023, dated 2026).

The target in one test is T1, hCRHR2 (Homo sapiens, UniProt Q13324).
T1 sequence (Q13324 1-411): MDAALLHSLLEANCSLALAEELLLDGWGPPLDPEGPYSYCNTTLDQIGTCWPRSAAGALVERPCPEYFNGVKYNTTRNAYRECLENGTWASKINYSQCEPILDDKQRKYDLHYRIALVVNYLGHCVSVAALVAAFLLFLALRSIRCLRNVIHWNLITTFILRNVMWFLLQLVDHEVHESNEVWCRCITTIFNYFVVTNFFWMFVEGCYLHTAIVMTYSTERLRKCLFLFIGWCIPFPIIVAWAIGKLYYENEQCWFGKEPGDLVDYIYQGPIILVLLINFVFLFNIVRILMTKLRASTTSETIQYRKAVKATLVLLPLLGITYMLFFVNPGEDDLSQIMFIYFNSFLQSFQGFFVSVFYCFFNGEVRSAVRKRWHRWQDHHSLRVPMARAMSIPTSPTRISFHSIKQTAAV
The experiment in a line: HTRF cAMP assay, determination of hCRHR2 potency (peptide libraries 5 conc., purified peptides 11 conc.). It is filed as cell-based. The gist of the method: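 Frozen stocks of hCRHR2-expressing CHO-K1 cells, thawed just before testing, received peptide agonists in suspension; cAMP quantified by competitive HTRF immunoassay, with curves fitted by nonlinear regression (variable slope) for EC50.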

A further test addresses T2, hCRHR1 (Homo sapiens, UniProt P34998).
T2 sequence (P34998 24-415): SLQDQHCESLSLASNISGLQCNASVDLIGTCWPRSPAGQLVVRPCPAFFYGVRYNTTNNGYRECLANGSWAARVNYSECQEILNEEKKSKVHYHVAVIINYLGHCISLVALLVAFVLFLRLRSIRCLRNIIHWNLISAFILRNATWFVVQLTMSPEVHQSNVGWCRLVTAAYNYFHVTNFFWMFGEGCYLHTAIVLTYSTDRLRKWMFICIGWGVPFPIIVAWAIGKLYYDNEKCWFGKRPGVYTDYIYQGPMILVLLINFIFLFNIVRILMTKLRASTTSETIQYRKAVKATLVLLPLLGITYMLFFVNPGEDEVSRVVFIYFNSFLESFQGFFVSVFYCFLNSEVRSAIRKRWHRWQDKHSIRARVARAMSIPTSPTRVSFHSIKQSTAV
The experiment in a line: HTRF cAMP assay, determination of hCRHR1 potency (peptide libraries 5 conc., purified peptides 11 conc.). It is filed as cell-based. An outline of the steps:
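Cellular cAMP was read by time-resolved FRET between d2-labelled cAMP and cryptate anti-cAMP antibody. The cells were freshly thawed suspension CHO-K1 cells stably expressing human CRHR1.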

The mark [1] stands for this setting: library peptides, matched molecular pairs L vs Nle in position X^38, read-out: Potency hCRHR2 pEC50 (converted).
[2] abbreviates: library peptides, matched molecular pairs L vs Nle in position X^38, read-out: Potency hCRHR1 pEC50 (converted).

For `CCCC[C@H](NC(=O)[C@@H](NC(=O)[C@H](CCC(=O)O)NC(=O)[C@H](C)NC(=O)[C@H](CC(N)=O)NC(=O)[C@@H](NC(=O)[C@H](CCCCNC(=O)COCCOCCNC(=O)COCCOCCNC(=O)CC[C@H](NC(=O)CC[C@H](NC(=O)CCCCCCCCCCCCCCCCCCC(=O)O)C(=O)O)C(=O)O)NC(=O)[C@H](C)NC(=O)[C@H](CCC(N)=O)NC(=O)[C@H](CCC(=O)O)NC(=O)[C@H](CCCNC(=N)N)NC(=O)[C@H](C)NC(=O)[C@H](CO)NC(=O)[C@H](CCC(=O)O)NC(=O)[C@H](C)NC(=O)[C@H](CCCNC(=N)N)NC(=O)[C@H](C)NC(=O)[C@H](CCC(N)=O)NC(=O)[C@H](CCC(=O)O)NC(=O)[C@H](CC(C)C)NC(=O)[C@H](CC(C)C)NC(=O)[C@@H](NC(=O)[C@H](CCC(N)=O)NC(=O)[C@H](CC(C)C)NC(=O)[C@H](CC(C)C)NC(=O)CNC(=O)[C@@H](NC(=O)[C@@H]1CCCN1C(=O)[C@@H](NC(=O)[C@H](CC(=O)O)NC(=O)[C@H](CC(C)C)NC(=O)[C@H](CO)NC(=O)[C@H](CC(C)C)NC(=O)[C@@H](NC(=O)[C@@H](N)[C@@H](C)CC)C(C)C)C(C)C)[C@@H](C)CC)[C@@H](C)CC)[C@@H](C)O)[C@@H](C)CC)C(=O)N[C@@H](C)C(=O)N[C@@H](CCC(=O)O)C(=O)N[C@H](C(N)=O)C(C)C` [SEQ ID NO: 42] (H-IVLSLDVPIGLLQILLEQARAESAREQAK([AEEA-AEEA-γGlu-γGlu-C20 diacid])TNAEI[Nle]AEV-NH2), the EC50 at hCRHR2 (Table 3, matched molecular pairs X^38 L vs Nle, peptide library of Example 4, read-out: hCRHR2 pEC50 (converted)) was 0.2 nM; on hCRHR1 (Table 3, matched molecular pairs X^38 L vs Nle, peptide library of Example 4, read-out: hCRHR1 pEC50 (converted)) it was 251 nM.
For `CC[C@H](C)[C@H](N)C(=O)N[C@H](C(=O)N[C@@H](CC(C)C)C(=O)N[C@@H](CO)C(=O)N[C@@H](CC(C)C)C(=O)N[C@@H](CC(=O)O)C(=O)N[C@H](C(=O)N1CCC[C@H]1C(=O)N[C@H](C(=O)NCC(=O)N[C@@H](CC(C)C)C(=O)N[C@@H](CC(C)C)C(=O)N[C@@H](CCC(N)=O)C(=O)N[C@H](C(=O)N[C@@H](CC(C)C)C(=O)N[C@@H](CC(C)C)C(=O)N[C@@H](CCC(=O)O)C(=O)N[C@@H](CCC(N)=O)C(=O)N[C@@H](C)C(=O)N[C@@H](CCCNC(=N)N)C(=O)N[C@@H](C)C(=O)N[C@@H](CCCNC(=N)N)C(=O)N[C@H](C(=O)N[C@@H](C)C(=O)N[C@@H](CCCNC(=N)N)C(=O)N[C@@H](CCC(=O)O)C(=O)N[C@@H](CCC(N)=O)C(=O)N[C@@H](C)C(=O)N[C@@H](CCCCNC(=O)COCCOCCNC(=O)COCCOCCNC(=O)CC[C@H](NC(=O)CC[C@H](NC(=O)CCCCCCCCCCCCCCCCCCC(=O)O)C(=O)O)C(=O)O)C(=O)N[C@H](C(=O)N[C@@H](CC(N)=O)C(=O)N[C@@H](C)C(=O)N[C@@H](CCC(=O)O)C(=O)N[C@H](C(=O)N[C@@H](CC(C)C)C(=O)N[C@@H](C)C(=O)N[C@@H](CCC(=O)O)C(=O)N[C@H](C(N)=O)C(C)C)[C@@H](C)CC)[C@@H](C)O)C(C)C)[C@@H](C)CC)[C@@H](C)CC)C(C)C)C(C)C` [compound 90] (H-IVLSLDVPIGLLQILLEQARARVAREQAK([AEEA-AEEA-γGlu-γGlu-C20 diacid])TNAEILAEV-NH2), the EC50 was 1 nM on hCRHR2 (setting [1]) and 20000 nM on hCRHR1 (setting [2]).
The like results for `CCCC[C@H](NC(=O)[C@@H](NC(=O)[C@H](CCC(=O)O)NC(=O)[C@H](C)NC(=O)[C@H](CC(N)=O)NC(=O)[C@@H](NC(=O)[C@H](CCCCNC(=O)COCCOCCNC(=O)COCCOCCNC(=O)CC[C@H](NC(=O)CC[C@H](NC(=O)CCCCCCCCCCCCCCCCCCC(=O)O)C(=O)O)C(=O)O)NC(=O)[C@H](C)NC(=O)[C@H](CCC(N)=O)NC(=O)[C@H](CCC(=O)O)NC(=O)[C@H](CCCNC(=N)N)NC(=O)[C@H](CC(C)C)NC(=O)[C@H](CCC(N)=O)NC(=O)[C@H](CCCNC(=N)N)NC(=O)[C@H](C)NC(=O)[C@H](CCCNC(=N)N)NC(=O)[C@H](C)NC(=O)[C@H](CCC(N)=O)NC(=O)[C@H](CCC(=O)O)NC(=O)[C@H](CC(C)C)NC(=O)[C@H](CC(C)C)NC(=O)[C@@H](NC(=O)[C@H](CCC(N)=O)NC(=O)[C@H](CC(C)C)NC(=O)[C@H](CC(C)C)NC(=O)CNC(=O)[C@@H](NC(=O)[C@@H]1CCCN1C(=O)[C@@H](NC(=O)[C@H](CC(=O)O)NC(=O)[C@H](CC(C)C)NC(=O)[C@H](CO)NC(=O)[C@H](CC(C)C)NC(=O)[C@@H](NC(=O)[C@@H](N)[C@@H](C)CC)C(C)C)C(C)C)[C@@H](C)CC)[C@@H](C)CC)[C@@H](C)O)[C@@H](C)CC)C(=O)N[C@@H](C)C(=O)N[C@@H](CCC(=O)O)C(=O)N[C@H](C(N)=O)C(C)C` [compound 73] (H-IVLSLDVPIGLLQILLEQARARQLREQAK([AEEA-AEEA-γGlu-γGlu-C20 diacid])TNAEI[Nle]AEV-NH2) were, in that order, 0.2 nM and 3.98 nM.
The like results for `CC[C@H](C)[C@H](N)C(=O)N[C@H](C(=O)N[C@@H](CC(C)C)C(=O)N[C@@H](CO)C(=O)N[C@@H](CC(C)C)C(=O)N[C@@H](CC(=O)O)C(=O)N[C@H](C(=O)N1CCC[C@H]1C(=O)N[C@H](C(=O)NCC(=O)N[C@@H](CC(C)C)C(=O)N[C@@H](CC(C)C)C(=O)N[C@@H](CCC(N)=O)C(=O)N[C@H](C(=O)N[C@@H](CC(C)C)C(=O)N[C@@H](CC(C)C)C(=O)N[C@@H](CCC(=O)O)C(=O)N[C@@H](CCC(N)=O)C(=O)N[C@@H](C)C(=O)N[C@@H](CCCNC(=N)N)C(=O)N[C@@H](C)C(=O)N[C@@H](CCCNC(=N)N)C(=O)N[C@@H](CCC(N)=O)C(=O)N[C@@H](CC(C)C)C(=O)N[C@@H](CCCNC(=N)N)C(=O)N[C@@H](CCC(=O)O)C(=O)N[C@@H](CCC(N)=O)C(=O)N[C@@H](C)C(=O)N[C@@H](CCCCNC(=O)COCCOCCNC(=O)COCCOCCNC(=O)CC[C@H](NC(=O)CC[C@H](NC(=O)CCCCCCCCCCCCCCCCCCC(=O)O)C(=O)O)C(=O)O)C(=O)N[C@H](C(=O)N[C@@H](CC(N)=O)C(=O)N[C@@H](C)C(=O)N[C@@H](CCC(=O)O)C(=O)N[C@H](C(=O)N[C@@H](CC(C)C)C(=O)N[C@@H](C)C(=O)N[C@@H](CCC(=O)O)C(=O)N[C@H](C(N)=O)C(C)C)[C@@H](C)CC)[C@@H](C)O)[C@@H](C)CC)[C@@H](C)CC)C(C)C)C(C)C` [compound 72] (H-IVLSLDVPIGLLQILLEQARARQLREQAK([AEEA-AEEA-γGlu-γGlu-C20 diacid])TNAEILAEV-NH2) were, in that order, 0.316 nM and 251 nM.
The matching figures for `CCCC[C@H](NC(=O)[C@@H](NC(=O)[C@H](CCC(=O)O)NC(=O)[C@H](C)NC(=O)[C@H](CC(N)=O)NC(=O)[C@@H](NC(=O)[C@H](CCCCNC(=O)COCCOCCNC(=O)COCCOCCNC(=O)CC[C@H](NC(=O)CC[C@H](NC(=O)CCCCCCCCCCCCCCCCCCC(=O)O)C(=O)O)C(=O)O)NC(=O)[C@H](C)NC(=O)[C@H](CCC(N)=O)NC(=O)[C@H](CCC(=O)O)NC(=O)[C@H](CCCNC(=N)N)NC(=O)[C@H](C)NC(=O)[C@@H](NC(=O)[C@H](CCCNC(=N)N)NC(=O)[C@H](C)NC(=O)[C@H](CCCNC(=N)N)NC(=O)[C@H](C)NC(=O)[C@H](CCC(N)=O)NC(=O)[C@H](CCC(=O)O)NC(=O)[C@H](CC(C)C)NC(=O)[C@H](CC(C)C)NC(=O)[C@@H](NC(=O)[C@H](CCC(N)=O)NC(=O)[C@H](CC(C)C)NC(=O)[C@H](CC(C)C)NC(=O)CNC(=O)[C@@H](NC(=O)[C@@H]1CCCN1C(=O)[C@@H](NC(=O)[C@H](CC(=O)O)NC(=O)[C@H](CC(C)C)NC(=O)[C@H](CO)NC(=O)[C@H](CC(C)C)NC(=O)[C@@H](NC(=O)[C@@H](N)[C@@H](C)CC)C(C)C)C(C)C)[C@@H](C)CC)[C@@H](C)CC)C(C)C)[C@@H](C)O)[C@@H](C)CC)C(=O)N[C@@H](C)C(=O)N[C@@H](CCC(=O)O)C(=O)N[C@H](C(N)=O)C(C)C` [compound 91] (H-IVLSLDVPIGLLQILLEQARARVAREQAK([AEEA-AEEA-γGlu-γGlu-C20 diacid])TNAEI[Nle]AEV-NH2): 0.398 nM and 1.58 nM.
